# ChEMBL document CHEMBL4177530, “Bufospirostenin A and Bufogargarizin C, Steroids with Rearranged Skeletons from the Toad Bufo bufo gargarizans” (J Nat Prod, 2017)
# Calls of active or inactive are those of the source. The calls are words filed in the database; no cut-off is given here.
# What was measured:
# Sus scrofa [1] = species on record: Sus scrofa; test: Inhibition of Na/K-ATPase in pig kidney microsomal membranes assessed as reduction in inorganic phosphate release from ATP at 12.5 uM incubated for 15 mins by spectrophotometry; assay type: cell membranes
# Sus scrofa [2] = species on record: Sus scrofa; test: Inhibition of Na/K-ATPase in pig kidney microsomal membranes assessed as reduction in inorganic phosphate release from ATP at 25 uM incubated for 15 mins by spectrophotometry; assay type: cell membranes
inhibition (Sus scrofa [1]),inhibition (Sus scrofa [2]),Structure (SMILES)
inactive,inactive,C[C@]12CCC3=C(C=CC4=C(C3)[C@@H]3C[C@H](C4)O3)[C@H]1CC[C@@H]2c1ccc(=O)oc1
21%,43%,C=C1CC[C@@]2(OC1)O[C@H]1C[C@H]3[C@@H]4CC=C5C[C@@H](O)C[C@H]5[C@](C)(O)[C@H]4CC[C@]3(C)[C@H]1[C@@H]2C

Structure (SMILES),inhibition (Sus scrofa [1]),inhibition (Sus scrofa [2])
C[C@]12CC[C@H](O)C[C@H]1CC[C@@H]1[C@@H]2CC[C@]2(C)[C@@H](c3ccc(=O)oc3)CC[C@]12O,100%,100%
